From patent US20250011404A1, “TARGETING APOE ENHANCES T-CELL KILLING IN CANCER IMMUNOTHERAPY” (Children's National Medical Center, priority 2021, published 2025)
Entries after “also recorded” stand apart in the source; their conditions may differ.

Tests used:
[1] = test system: splenocytes co-cultured with Myc-inhibited B16 tumor cells; test: ProcartaPlex multiplex immunoassay of splenocyte/B16 co-cultures; assay type: cell-based, mouse
Experimental: To further investigate the influence of tumor secreted apoE on immune cell function, immunogenic B16 tumor cells (B16 cells treated with Myc inhibitors (0.25 μM BET+0.25 μM JQ1 for 4 days) were irradiated at 60 Gray and co-cultured with naïve C57/BL6 splenocytes in the presence of either apoE mimetic COG133 at 0.3, 3 and 9 μM or anti-APOE blocking antibody at 1, 10 and 30 μg/ml concentrations. Prior work has shown the immunogenic effect of treating cancer cells with Myc inhibitors and irradiation. IFNγ production was quantified by ELISA at 48 h. Splenocytes produced high levels of IFNγ when co-cultured with Myc-inhibited immunogenic B16 cells as shown in FIGS. 3A-3C. Exposure of these cells to apoE mimetic COG133 repressed IFNγ production (6-fold reduction) (FIG. 3A), while the presence of Anti-APOE antibody enhanced IFNγ production (3-fold increase) (FIG. 3B). We also tested IFNγ production from vaccinated splenocytes following co-culture with treated and untreated B16 cells in the presence of COG 133. To obtain vaccinated splenocytes, 10^4 WT B16 tumor cells and 100 μg/ml anti-CTLA4 antibody were administered to C57BL/6 mice on day 0, and splenocytes were collected at day 7 after tumor cell inoculation. Compared with naïve splenocytes, vaccinated splenocytes produced dramatically greater level of IFNγ, especially when they were co-cultured with Myc inhibited B16 tumor cells. […] In addition to IFNγ, we also quantified other cytokine/chemokines using ProcartaPlex multiplex immunoassay. […] Within these 14 cytokines, four of them including IFN[…], IL6, IL18 and RANTES (CCL5) were suppressed after exposure to apoE peptide mimetic COG133 in a dose dependent manner (FIG. 17).
Cell culture supernatant was collected after centrifuge at 1,200 rpm for 10 min at 4° C. The concentrations of the following immune molecules were determined using the mouse Cytokine & Chemokine 36-plex ProcartaPlex Panel, a magnetic bead-based multiplex immunoassay (Thermo Scientific) following our previous protocol(19). Briefly, cell culture supernatant samples were mixed with antibody-linked polystyrene beads on a 96-well plate and incubated at room temperature (RT) for 2 h on an orbital shaker at 500 rpm. After washing, plates were incubated with biotinylated detection antibody for 30 min at RT. Plates were then washed twice and then labeled beads were resuspended in streptavidin-PE. Each sample was measured in duplicate along with standards (8-point dilutions) and the buffer control. Plates were read using a Luminex Bio-plex 200 system (Bio-Rad Corp.) for quantitative analysis.

activated mouse T cells = test: Viability of CD3/CD28-activated T cells, flow cytometry with Sytox Red dead cell stain; assay type: cell-based; settings: T cells activated with CD3/CD28 dynabeads; COG133 0, 3, 9, 15 and 30 μM; 48 hr
Experimental: FIG. 14A: T cells isolated from naïve mouse spleens were cultured in RPMI media, WT B16 conditioned media and apoE^−/− B16 conditioned media for 48 hr and the media was analyzed with ProcartaPlex multiplex immunoassay. […] Remarkably, these effects were reversed by incubating T-cells with conditioned media from apoE^−/− cells, similar to T-cells activated in control RPMI media alone. Results are expressed as mean score±SD. *p<0.05; **p<0.005; ***p<0.001, determined by unpaired two-tailed Student's t-test. FIG. 14B: The effect of apoE agonist peptide COG133 on the viability of activated mouse T cells was tested by culturing the cells in the presence of the indicated concentrations of peptide for 48 hr and cell death was quantified with flow cytometry using the APC-conjugated Sytox Red dead cell stain. […] The number in Quadrant 2 is the percentage of dead cells.
T cells were activated with CD3/CD28 dynabeads and the effects of COG133 (0, 3, 9, 15 and 30 μM concentrations) on T cell apoptosis were evaluated.
Spleens were collected from mice euthanized by C02 narcosis and cervical dislocation. Spleens were pulverized through a 40-μm mesh cell strainer and treated with ACK lysing buffer (Thermo Fisher) for 10 seconds to remove erythrocytes. […]

With “COG133: a fragment of apoE peptide, which competes with the apoE holoprotein for binding the LDL receptors and acts as an apoE mimetic” the “IL-13, IL-4, IL22, IL18, MCP-1, RANTES and Gro-α, WT vaccinated splenocytes” value ([1]; co-culture with Myc-inhibited B16 cells 48 hr, multiplex immunoassay (FIG. 18)) was “suppression”, the “production of IFNγ, IL-6 and IL-18, naïve splenocytes” value ([1]; co-cultures with naïve splenocytes, 48 hr, multiplex ELISA (FIG. 17)) was “suppressive effect” and the “production of IFNγ, IL-6 and IL-18, vaccinated splenocytes” value ([1]; co-cultures with vaccinated splenocytes, 48 hr, multiplex ELISA (FIG. 17)) was “diminished in vaccinated splenocytes is still observed”. For the same substance, the “IFNγ, IL6, IL18 and RANTES (CCL5) production” value ([1]; splenocytes + Myc-inhibited B16 cells, multiplex immunoassay, dose dependent manner) was “suppressed” and the T cell viability (activated mouse T cells) was “diminished in a dose dependent manner; also recorded: decreases in a dose dependent fashion”.
